What was measured:
dandelions [1] = test: Example 1 field test of iron chelates, dandelion damage; assay type: in vivo, Taraxacum officinale; conditions: sprayed once at 100 ml/m^2, 5 days after spraying
Description: (§1) The following non-limiting examples serve to further describe the invention. Unless otherwise specified, all of the iron solutions were made using the same molar concentration of iron ion as chelating agent. All of the outside tests were done on areas of mixed grass and dandelions that were at least 2 months old. For the greenhouse tests, dandelions were grown in a commercial greenhouse mix, using supplemental lighting and heating. Each plant was grown in a 2¼ inch pot to a minimum diameter of 20 cm. All of the solutions were sprayed onto the plants at a rate of 100 ml/m^2. The ferrous sulfate formulations that were used in examples 1, 2, 8 and 9 contained 1% iron (180 mM), 18 mM EDTA, 1% citric acid and 0.5% urea. In all of the examples, the amount of iron is identified in brackets as the percent iron on a weight basis.
(§2) All plant damage was assessed using a qualitative rating scale from 0 to 9.
All of the iron chelates were sprayed once at 0.2% Fe^+3 (35.8 mM), at a volume of 100 ml/m^2 onto 0.5 m^2 areas of mixed grass and dandelions. The spraying of the test was followed by 2 days of rain-free weather. Observations were made 5 days after spraying.

grass [2] = test: Example 13 field test, grass; assay type: in vivo
Description: (§3) Killex® (Green Cross, Ontario, Canada) is a commonly used selective lawn herbicide and was included in several field tests as a standard. Killex contains 2,4-D (9.5%), mecoprop (5%) and dicamba (0.9%). The product was diluted 6 ml into 1 L of water solution and applied at rate of 200 ml/m^2, as per label instructions.
(§4) This test evaluated FeEDDS (0.4% Fe^+3) and FeHEDTA (0.2% Fe^+3) for controlling the weed hairy cat's ear (Hypochoeris radicata), also known as “false dandelion”, grown in areas of mixed grass and Hypochoeris. The iron solutions were sprayed at a rate of 100 ml/m^2 to 1.0 m^2 plots. The iron treatments were resprayed after 7 and 14 days. Killex (Solaris ON, Canada) was diluted and applied once as per label instructions of 6 ml /L applied at 200 ml/m^2.

broadleaf plantain = test: Example 19 FeHEDTA with Killex at reduced rates, broadleaf plantain; assay type: in vivo; conditions: Killex ® 0%, 7 days after application
Description: (§5) Plants were fertilized with an all purpose water-soluble fertilizer mix of 20-20-20 (N-P-K; Plant-Prod®) as needed. All broadleaf weeds were grown individually in a 2¼-inch pot until they were a suitable size for herbicide tests (actual weed size is reported in examples below). Perennial ryegrass was also grown in 2¼-inch pots, however many grass seeds were sown in the pot to simulate a small section of turf. Grass plants were continually trimmed to a height of 4 cm, simulating that of a homeowner's lawn. For field tests, plots ¼ m^2 in size were marked out in areas containing the targeted broadleaf weed species growing in turf grass. Plots were continually mowed to simulate a homeowner's lawn. […] In all of the examples, the amounts of the various herbicide components are identified as a percent on a weight basis.
(§6) Killex® (Scotts Canada, Ltd., Ontario, Canada) is a commonly used selective lawn herbicide and was used as the commercial herbicide for herbicide combinations. The labeled dilution and application rates for Killex® are 6 ml into 1 L of solution (0.6%) applied at 200 ml/m^2.
(§7) All visual plant damage assessments were made using a quantitative rating scale; percent control relative to the untreated check (0=no effect; 100=plant death).
(§8) Materials and Methods: This trial was conducted in the greenhouse. Ten broadleaf plantain plants and 5 pots of perennial ryegrass were selected for each treatment. Herbicide solutions were prepared using deionized water. The treatments were applied using a hand-trigger sprayer at 200 ml/m^2. All treatments were applied once. Phytotoxicity (%) was assessed 7 days after application (A7).

perennial ryegrass = test: Example 19 FeHEDTA with Killex at reduced rates, perennial ryegrass; assay type: in vivo; conditions: Killex ® 0%, 7 days after application
Description: as §5, §6, §7, §8

[3] = test system: chickweed scarlet pimpernel (Anagallis arvensis); test: Example 12 FeHEDTA field test, chickweed scarlet pimpernel; assay type: in vivo; conditions: for Survival of Chickweed Plants (%): day 7/day 0
Description: This test evaluated FeHEDTA with 0.15% and 0.2% Fe for controlling the chickweed scarlet pimpernel (Anagallis arvensis) and dandelion (Taraxacum officinale). The solution contained 1.3 times the molar amount of chelating agent as iron. Field areas of well established chickweed and dandelion (0.5 m^2) were sprayed at a rate of 100 ml/m^2.

dandelions [4] = test: Example 10 FeHEDTA at 0.1% and 0.2% Fe on potted dandelions; assay type: in vivo, Taraxacum officinale
Description: This test investigated using 0.1% (17.9 mM) and 0.2% (35.8 mM) iron, as FeHEDTA, to kill potted dandelions. The solutions contained 10% excess chelating agent.
Small (12 cm diameter) to medium (20 cm diameter) sized, greenhouse-grown dandelions were used. These sizes of dandelions are typically found in lawns. The plants were re-sprayed 7 days after the first spray.

grass [5] = test: Example 2 field test of FeEDDS and FeHEDTA at pH 3 and 7, grass; assay type: in vivo; conditions: in vivo
Description: as §1, §2
The FeEDDS and FeHEDTA solutions contained 0.2% Fe^+3 (35.8 mM). The ferrous sulfate contained 1% Fe^+2 (179.1 mM). The solutions were sprayed at a rate of 0.1 L/m^2 onto 2 plots of 0.5 m^2 of mixed grass and dandelions. Observations were made 4 days after spraying.

[6] = test system: hairy cat's ear (Hypochoeris radicata); test: Example 13 field test, hairy cat's ear; assay type: in vivo
Description: as §3, §4

SMILES: O=C([O-])CN(CCO)CCN(CC(=O)[O-])CC(=O)[O-].[Fe+3] [FeHEDTA]
- Dandelion Damage (0 to 9) (dandelions [1]): 8.9 0 to 9
- Area Covered by Hairy Grass (%) (grass [2]; day 0): 15%
- Relative Grass Area (Start = 100%) (grass [2]; day 0): 100%
- Area Covered by Hairy Grass (%) (grass [2]; day 6): 47%
- Relative Grass Area (Start = 100%) (grass [2]; day 6): 313%
- Area Covered by Hairy Grass (%) (grass [2]; day 8): 40%
- Relative Grass Area (Start = 100%) (grass [2]; day 8): 267%
- Area Covered by Hairy Grass (%) (grass [2]; day 15): 50%
- Relative Grass Area (Start = 100%) (grass [2]; day 15): 333%
- Area Covered by Hairy Grass (%) (grass [2]; day 18): 46%
- Relative Grass Area (Start = 100%) (grass [2]; day 18): 307%
- A7 Phytotoxicity (%) against broadleaf plantain (broadleaf plantain; listed as FeHEDTA 0.1% Fe): 9%
- A7 Phytotoxicity (%) against broadleaf plantain (broadleaf plantain; listed as FeHEDTA 0.2% Fe): 10%
- A7 Phytotoxicity (%) against broadleaf plantain (broadleaf plantain; listed as FeHEDTA 0.4% Fe): 22%
- A7 Phytotoxicity (%) against perennial ryegrass (perennial ryegrass; listed as FeHEDTA 0.1% Fe): 1%
- A7 Phytotoxicity (%) against perennial ryegrass (perennial ryegrass; listed as FeHEDTA 0.2% Fe): 1%
- A7 Phytotoxicity (%) against perennial ryegrass (perennial ryegrass; listed as FeHEDTA 0.4% Fe): 2%
- Chickweed Plants (#/0.5 m^2) ([3]; 7 days after spraying, listed as FeHEDTA (0.15% Fe)): 8 #/0.5 m^2
- Chickweed Plants (#/0.5 m^2) ([3]; 7 days after spraying, listed as FeHEDTA (0.20% Fe)): 4 #/0.5 m^2
- numbers of chickweed plants, in words ([3]; Example 12, text): significantly reduced
- Chickweed Plants (#/0.5 m^2) ([3]; day 0, listed as FeHEDTA (0.15% Fe)): 15 #/0.5 m^2
- Chickweed Plants (#/0.5 m^2) ([3]; day 0, listed as FeHEDTA (0.20% Fe)): 25 #/0.5 m^2
- Survival of Chickweed Plants (%) ([3]; listed as FeHEDTA (0.15% Fe)): 53%
- Survival of Chickweed Plants (%) ([3]; listed as FeHEDTA (0.20% Fe)): 16%
- susceptibility of dandelions, in words (dandelions [4]; 12 to 20 cm diameter dandelions): very susceptible
- Dead Dandelions (#/10) (dandelions [4]; dandelion diameter 12 cm, 7 + 6 days (re-sprayed after 7 days)): 10 #/10
- Dead Dandelions (#/10) (dandelions [4]; dandelion diameter 12 cm, 6 days after spraying, listed as FeHEDTA (0.1% Fe)): 2 #/10
- Dead Dandelions (#/10) (dandelions [4]; dandelion diameter 12 cm, 6 days after spraying, listed as FeHEDTA (0.2% Fe)): 8 #/10
- Dead Dandelions (#/10) (dandelions [4]; dandelion diameter 16 cm, 7 + 6 days, listed as FeHEDTA (0.1% Fe)): 3 #/10
- Dead Dandelions (#/10) (dandelions [4]; dandelion diameter 16 cm, 7 + 6 days, listed as FeHEDTA (0.2% Fe)): 10 #/10
- Dead Dandelions (#/10) (dandelions [4]; dandelion diameter 16 cm, 6 days after spraying, listed as FeHEDTA (0.1% Fe)): 1 #/10
- Dead Dandelions (#/10) (dandelions [4]; dandelion diameter 16 cm, 6 days after spraying, listed as FeHEDTA (0.2% Fe)): 3 #/10
- Dead Dandelions (#/10) (dandelions [4]; dandelion diameter 20 cm, 7 + 6 days, listed as FeHEDTA (0.1% Fe)): 3 #/10
- Dead Dandelions (#/10) (dandelions [4]; dandelion diameter 20 cm, 7 + 6 days, listed as FeHEDTA (0.2% Fe)): 8 #/10
- Dead Dandelions (#/10) (dandelions [4]; dandelion diameter 20 cm, 6 days after spraying, listed as FeHEDTA (0.1% Fe)): 0 #/10
- Dead Dandelions (#/10) (dandelions [4]; dandelion diameter 20 cm, 6 days after spraying, listed as FeHEDTA (0.2% Fe)): 1 #/10
- Grass Damage (0 to 9) (grass [5]; pH 2.6): 0.0 0 to 9
- Grass Damage (0 to 9) (grass [5]; pH 7): 1.0 0 to 9
- Area Covered by Hairy Cat's Ear (%) ([6]; day 0): 65%
- Relative Cat's Ear Area (Start = 100%) ([6]; day 0): 100%
- Area Covered by Hairy Cat's Ear (%) ([6]; day 6): 20%
- Relative Cat's Ear Area (Start = 100%) ([6]; day 6): 31%
- Area Covered by Hairy Cat's Ear (%) ([6]; day 8): 20%
- Relative Cat's Ear Area (Start = 100%) ([6]; day 8): 31%
- Area Covered by Hairy Cat's Ear (%) ([6]; day 14): 5%
- Relative Cat's Ear Area (Start = 100%) ([6]; day 15): 8%
- Area Covered by Hairy Cat's Ear (%) ([6]; day 18): 0%
- Relative Cat's Ear Area (Start = 100%) ([6]; day 18): 0%

— US20100273656A1, “COMPOSITION AND METHOD FOR SELECTIVE HERBICIDE” (priority 2002, published 2010)
